Experiments:
Hepatotoxicity [1] = assay: Literature-mined compound from Fourches et al multi-species drug-induced liver injury (DILI) dataset, effect in humans; conditions: human
Hepatotoxicity [2] = assay: Literature-mined compound from Fourches et al multi-species drug-induced liver injury (DILI) dataset, effect in rodents; conditions: rodentia
Hepatotoxicity [3] = assay: Literature-mined compound from Fourches et al multi-species drug-induced liver injury (DILI) dataset, effect in non-rodents

Row | SMILES | Hepatotoxicity (Hepatotoxicity [1]) | Hepatotoxicity (Hepatotoxicity [2]) | Hepatotoxicity (Hepatotoxicity [3]) | Hepatotoxicity (Hepatotoxicity [1]; Liver) | Hepatotoxicity (Hepatotoxicity [2]; Liver) | Hepatotoxicity (Hepatotoxicity [3]; Liver)
1 | C[C@@H]1C/C=C/C=C/C=C/C=C/[C@H](O[C@@H]2O[C@H](C)[C@@H](O)[C@H](N)[C@@H]2O)C[C@@H]2O[C@](O)(C[C@@H](O)C[C@H]3O[C@@H]3/C=C/C(=O)O1)C[C@H](O)[C@H]2C(=O)O [NATAMYCIN] | no drug-induced liver injury reported | no drug-induced liver injury reported | drug-induced liver injury reported | – | – | –
2 | O=C1CN(/N=C/c2ccc([N+](=O)[O-])o2)C(=O)N1 [NITROFURANTOIN] | – | – | – | drug-induced liver injury reported | drug-induced liver injury reported | drug-induced liver injury reported
3 | CC(C)C[C@H](NC(=O)[C@H](Cc1ccccc1)NC(=O)c1cnccn1)B(O)O [BORTEZOMIB] | – | – | – | drug-induced liver injury reported | drug-induced liver injury reported | no drug-induced liver injury reported
4 | CC[C@H]1OC(=O)[C@H](C)C(=O)[C@H](C)[C@@H](O[C@@H]2O[C@H](C)C[C@H](N(C)C)[C@H]2O)[C@](C)(OC)C[C@@H](C)C(=O)[C@H](C)[C@H]2N(CCCCn3cnc(-c4cccnc4)c3)C(=O)O[C@]12C [TELITHROMYCIN] | – | – | – | drug-induced liver injury reported | drug-induced liver injury reported | no drug-induced liver injury reported
5 | Cc1ccccc1C(OCCN(C)C)c1ccccc1 (stereo unspecified) [ORPHENADRINE] | no drug-induced liver injury reported | drug-induced liver injury reported | no drug-induced liver injury reported | – | – | –
6 | Nc1ncnc2c1ncn2[C@@H]1O[C@H](CO)[C@@H](O)[C@H]1O [ADENOSINE] | drug-induced liver injury reported | drug-induced liver injury reported | drug-induced liver injury reported | – | – | –
7 | CCc1nc(N)nc(N)c1-c1ccc(Cl)cc1 [PYRIMETHAMINE] | drug-induced liver injury reported | drug-induced liver injury reported | no drug-induced liver injury reported | – | – | –
8 | NC(N)=O [UREA] | no drug-induced liver injury reported | drug-induced liver injury reported | no drug-induced liver injury reported | – | – | –
9 | COc1cc2ncnc(Nc3ccc(F)c(Cl)c3)c2cc1OCCCN1CCOCC1 [GEFITINIB] | drug-induced liver injury reported | drug-induced liver injury reported | no drug-induced liver injury reported | – | – | –
10 | N[C@@H](Cc1c[nH]c2ccccc12)C(=O)O [TRYPTOPHAN] | no drug-induced liver injury reported | drug-induced liver injury reported | no drug-induced liver injury reported | – | – | –
11 | Nc1nc(Cl)nc2c1ncn2[C@@H]1O[C@H](CO)[C@@H](O)[C@@H]1F [CLOFARABINE] | drug-induced liver injury reported | no drug-induced liver injury reported | no drug-induced liver injury reported | – | – | –
12 | O=C1OC(c2ccc(O)cc2)(c2ccc(O)cc2)c2ccccc21 [PHENOLPHTHALEIN] | no drug-induced liver injury reported | drug-induced liver injury reported | no drug-induced liver injury reported | – | – | –
13 | COc1cc(NS(=O)(=O)c2ccc(N)cc2)nc(OC)n1 [SULFADIMETHOXINE] | drug-induced liver injury reported | no drug-induced liver injury reported | no drug-induced liver injury reported | – | – | –
14 | CN(C)CC/C=C1\c2ccccc2CSc2ccccc21 [DOTHIEPIN] | drug-induced liver injury reported | no drug-induced liver injury reported | no drug-induced liver injury reported | – | – | –
15 | CC1=NS(=O)(=O)c2cc(Cl)ccc2N1 [DIAZOXIDE] | drug-induced liver injury reported | drug-induced liver injury reported | no drug-induced liver injury reported | – | – | –
16 | NC(=O)N1c2ccccc2CC(=O)c2ccccc21 [OXCARBAZEPINE] | drug-induced liver injury reported | no drug-induced liver injury reported | no drug-induced liver injury reported | – | – | –
17 | CC(C)c1c(C(=O)Nc2ccccc2)c(-c2ccccc2)c(-c2ccc(F)cc2)n1CC[C@@H](O)C[C@@H](O)CC(=O)O [ATORVASTATIN] | – | – | – | drug-induced liver injury reported | drug-induced liver injury reported | drug-induced liver injury reported
18 | C=CCC1(CC(C)C)C(=O)NC(=O)NC1=O [BUTALBITAL] | drug-induced liver injury reported | no drug-induced liver injury reported | no drug-induced liver injury reported | – | – | –
19 | O=c1cc[nH]c(=O)[nH]1 [URACIL] | drug-induced liver injury reported | drug-induced liver injury reported | no drug-induced liver injury reported | – | – | –
20 | Clc1ccc(COC(Cn2ccnc2)c2ccc(Cl)cc2Cl)cc1 (stereo unspecified) [ECONAZOLE] | no drug-induced liver injury reported | drug-induced liver injury reported | no drug-induced liver injury reported | – | – | –
21 | C[C@@H]1CC(=O)NN=C1c1ccc(NN=C(C#N)C#N)cc1 [LEVOSIMENDAN] | no drug-induced liver injury reported | no drug-induced liver injury reported | drug-induced liver injury reported | – | – | –
22 | O=c1[nH]c(=O)c2c[nH]nc2[nH]1 [OXYPURINOL] | no drug-induced liver injury reported | drug-induced liver injury reported | no drug-induced liver injury reported | – | – | –
23 | COc1cc(C(=O)NS(=O)(=O)c2ccccc2C)ccc1Cc1cn(C)c2ccc(NC(=O)OC3CCCC3)cc12 [ZAFIRLUKAST] | drug-induced liver injury reported | no drug-induced liver injury reported | no drug-induced liver injury reported | – | – | –
24 | CN1CCN(C2=Nc3cc(Cl)ccc3Nc3ccccc32)CC1 [CLOZAPINE] | drug-induced liver injury reported | no drug-induced liver injury reported | no drug-induced liver injury reported | – | – | –
25 | CC1=C(CCC(=O)O)c2cc3nc(cc4[nH]c(cc5[nH]c(cc1n2)c(C)c5C(C)O)c(C)c4C(C)O)C(C)=C3CCC(=O)O (stereo unspecified) [HAEMAPORPHYRIN] | no drug-induced liver injury reported | drug-induced liver injury reported | no drug-induced liver injury reported | – | – | –
26 | CC1(C)S[C@@H]2[C@H](NC(=O)[C@H](NC(=O)N3CCNC3=O)c3ccccc3)C(=O)N2[C@H]1C(=O)O [AZLOCILLIN] | drug-induced liver injury reported | no drug-induced liver injury reported | no drug-induced liver injury reported | – | – | –
27 | CC(=O)OCC1=C(C(=O)O)N2C(=O)[C@@H](NC(=O)Cc3cccs3)[C@H]2SC1 [CEPHALOTHIN] | drug-induced liver injury reported | no drug-induced liver injury reported | no drug-induced liver injury reported | – | – | –
